From patent US20250092065A1, “2-(INDAZOL-5-YL)-6-(PIPERIDIN-4-YL)-1,7-NAPHTHYRIDINE DERIVATIVES AND RELATED COMPOUNDS AS MODULATORS FOR SPLICING NUCLEIC ACIDS AND FOR THE TREATMENT OF PROLIFERATIVE DISEASES” (REMIX THERAPEUTICS INC., priority 2022, published 2025)
Read-outs that look alike come from different tables or passages of the source.

How the values were obtained:
K562 cells = assay: Cell Titer Glo 2.0 cell viability (toxicity) assay, K562; conditions: 500 cells/well, 72 hours
MYB mRNA = assay: RT-qPCR splicing assay, MYB mRNA canonical (CJ) and alternative (AJ) junction; format: cell-based, human; conditions: Homo sapiens; for AC50: MYB alternative junction mRNA, read-out: MYB AJ (increase in AJ mRNA, AC50)
Procedure, shortened: (§1)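 Splice switching quantified in compound-treated A673/K562 cells after 24 h exposure (top dose 10 uM, 3-fold steps, ≤0.25% DMSO), using CJ and AJ qPCR assays run at least in duplicate. RQ derived by 2^(−ΔΔCt), then percentage response.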

SMN2 mRNA = assay: RT-qPCR splicing assay, SMN2 mRNA; format: cell-based, human; conditions: Homo sapiens, canonical junction qPCR panel, Table 4; read-out: SMN2 IC50 (decrease in CJ mRNA levels)
Procedure, shortened: as §1

HTT = assay: HiBiT protein abundance assay, HTT (K562 HiBiT knock-in); format: cell-based, human; conditions: HiBiT knock-in K562 cells, 24 hours, top dose 10 μM
Procedure, shortened: (§2)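 Luminescence readout: Nano-Glo HiBiT lytic detection after 24 h compound exposure of K562 HiBiT knock-in cells, 10000 cells/well. Dosing 10-pt, 3-fold, top 10 μM final. % response vs untreated parental K562 and DMSO controls; 4PL fit, IC50 = concentration giving 50% protein abundance.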

MYB = assay: HiBiT protein abundance assay, MYB (K562 HiBiT knock-in); format: cell-based, human; conditions: HiBiT knock-in K562 cells, 24 hours, top dose 10 μM
Procedure, shortened: as §2

Target C = assay: HiBiT protein abundance assay, Target C (K562 HiBiT knock-in); format: cell-based, human; conditions: HiBiT knock-in K562 cells, 24 hours, top dose 10 μM
Procedure, shortened: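 K562 HiBiT knock-in cells (10000/well) were treated 24 h at 37° C with a 10-point 3-fold dilution series (top 10 μM final, ≤0.25% DMSO). HiBiT luminescence was read after lytic LgBiT detection. Percent response used unmodified K562 and DMSO-treated knock-in controls, and IC50 came from a four-parameter fit at 50% of untreated.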

HTT mRNA = assay: RT-qPCR splicing assay, HTT mRNA canonical (CJ) and alternative (AJ) junction; format: cell-based, human; conditions: Homo sapiens; for AC50: HTT alternative junction mRNA, read-out: HTT AJ (increase in AJ mRNA, AC50)
Procedure, shortened: as §1

[1] = MYB canonical junction mRNA, RT-qPCR, read-out: MYB CJ (decrease in CJ mRNA levels, IC50)
[2] = canonical junction qPCR panel, Table 4, read-out: MYB IC50 (decrease in CJ mRNA levels)
[3] = HTT canonical junction mRNA, RT-qPCR, read-out: HTT CJ (decrease in CJ mRNA levels, IC50)
[4] = canonical junction qPCR panel, Table 4, read-out: HTT IC50 (decrease in CJ mRNA levels)

Row | Structure (SMILES) | Effect of Exemplary Compounds on Cell Viability, K562 (K562 cells) | AC50 (MYB mRNA; RT-qPCR) [nM] | IC50 (MYB mRNA; [1]) [nM] | IC50 (MYB mRNA; [2]) [nM] | IC50 (SMN2 mRNA) [nM] | IC50 (HTT) [nM] | IC50 (MYB) [nM] | IC50 (Target C) [nM] | AC50 (HTT mRNA; RT-qPCR) [nM] | IC50 (HTT mRNA; [3]) [nM] | IC50 (HTT mRNA; [4]) [nM]
1 | Cc1nc2cc(O)c(-c3ccc4nc(N5CC[C@@H](NC(C)(C)C)C5)ccc4n3)cc2o1 [Compound 210] | A (A represents <100 nM) | 1000 to 10000 | 1000 to 10000 | 1000 to 10000 | < 100 | < 100 | < 100 | < 100 | 1000 to 10000 | 100 to 1000 | 100 to 1000
2 | Cc1nc2cc(O)c(-c3ccc4nc(N5CC[C@H](NC6CC6)C5)ccc4n3)cc2o1 [Compound 211] | B (B represents 100-1000 nM) | < 100 | < 100 | < 100 | < 100 | < 100 | < 100 | < 100 | < 100 | < 100 | < 100
3 | Cc1nc2cc(O)c(-c3ccc4nc(N5CC[C@@H](NC6CC6)C5)ccc4n3)cc2o1 [Compound 212] | B (B represents 100-1000 nM) | 100 to 1000 | 100 to 1000 | 100 to 1000 | < 100 | < 100 | 100 to 1000 | 100 to 1000 | < 100 | < 100 | < 100
4 | Cc1nc2c(C)c(O)c(-c3ccc4nc(N5CC[C@@H](NC(C)(C)C)C5)ccc4n3)cc2o1 [Compound 215] | A (A represents <100 nM) | < 100 | < 100 | < 100 | < 100 | < 100 | < 100 | < 100 | < 100 | < 100 | < 100
5 | Cn1cc2cc(-c3cc4ccc(N5CCC(NC(C)(C)C)C5)nc4cn3)c(O)cc2n1 (stereo not drawn) [Compound 218] | C (C represents 1000-9999 nM) | 1000 to 10000 | > 10000 | > 10000 | 100 to 1000 | > 10000 | 1000 to 10000 | > 10000 | > 10000 | > 10000 | > 10000
6 | Cn1cc2cc(-c3ccc4nc(N5CC[C@@H](NC6(C)CC6)C5)ccc4n3)c(O)cc2n1 [Compound 220] | A (A represents <100 nM) | < 100 | < 100 | < 100 | < 100 | < 100 | < 100 | < 100 | < 100 | < 100 | < 100
7 | Cn1cc2cc(-c3ccc4nc(N5CC[C@H](NC6(C)CC6)C5)ccc4n3)c(O)cc2n1 [Compound 221] | B (B represents 100-1000 nM) | < 100 | < 100 | < 100 | < 100 | < 100 | < 100 | < 100 | < 100 | < 100 | < 100
8 | Cn1cc2cc(-c3ccc4nc(N5CC[C@H](NC6(C)CC6)C5)ccc4n3)c(O)c(F)c2n1 [Compound 222] | B (B represents 100-1000 nM) | < 100 | < 100 | < 100 | < 100 | < 100 | < 100 | < 100 | < 100 | < 100 | < 100
9 | Cn1cc2cc(-c3ccc4nc(N5CC[C@@H](NC6(C)CC6)C5)ccc4n3)c(O)c(F)c2n1 [Compound 223] | A (A represents <100 nM) | < 100 | < 100 | < 100 | < 100 | < 100 | < 100 | < 100 | < 100 | < 100 | < 100
